Test results: US4323550A, “Halogenohydrates of N,N-disubstituted derivatives of piperazine having anticariogenic properties” (priority 1976, dated 1982)

Test system: rats
Assay: in vivo
Type: in vivo
Settings: rat; for Deaths: oral
Description: By way of example there are described below the comparative tests made on difluorohydrate of N,N'-di(hydroxyethyl) piperazine and on fluorohydrate of hexadecylamine or "ELMEX 242".
The acute toxidity was studies in rats and in mice.
The animals came from a homogeneous breed. The mice weighed between 19 and 21 g and the rats weighed from 120 to 140 g. The mice were grouped in lots of 10 and the rats in lots of 8.
The administrations took place orally at a volume of 0.5 ml per 20 g of mouse and 1 ml per 100 g of rat. The LD50 was determined by the method of Lichfield and Wilcoxon.
As regards the difluorohydrate of N,N'-di(hydroxyethyl) piperazine, the administered solution was prepared by diluting the mother solution to 65.4%, the dilutions being made after having weighed this solution. The administered dose is expressed by weight, taking account of the indicated strength of this solution.
For the solid "ELMEX 242" an aqueous suspension was prepared with the aid of solubilizing agents (e.g. Tween-polyoxyethylene sorbitan monolaurate). A very thick suspension is then obtained which tends to foam heavily, is difficult to get into the esophageal sound, and the determination of its volume is rendered difficult by the foam.
The results obtained with the "ELMEX" are therefore rather approximate.

Structure (SMILES): OCCN1CCN(CCO)CC1 [DIFLUOROHYDRATE OF N,N'-DI(HYDROXY-ETHYL) PIPERAZINE]
- symptoms / behavior (in vivo, po): Some diarrhea and some trembling appear.
- Deaths (250 mg/kg, D + 1, 8 per lot): 0
- Deaths (250 mg/kg, D + 2, 8 per lot): 0
- Deaths (250 mg/kg, D + 5, 8 per lot): 0
- Deaths (250 mg/kg, D + 10, 8 per lot): 0
- Deaths (500 mg/kg, D + 1, 8 per lot): 0
- Deaths (500 mg/kg, D + 2, 8 per lot): 0
- Deaths (500 mg/kg, D + 5, 8 per lot): 0
- Deaths (500 mg/kg, D + 10, 8 per lot): 0
- Deaths (750 mg/kg, D + 1, 8 per lot): 1
- Deaths (750 mg/kg, D + 2, 8 per lot): 3
- Deaths (750 mg/kg, D + 5, 8 per lot): 4
- Deaths (750 mg/kg, D + 10, 8 per lot): 4
- Deaths (1000 mg/kg, D + 1, 8 per lot): 2
- Deaths (1000 mg/kg, D + 2, 8 per lot): 5
- Deaths (1000 mg/kg, D + 5, 8 per lot): 6
- Deaths (1000 mg/kg, D + 10, 8 per lot): 6
- Deaths (1250 mg/kg, D + 1, 8 per lot): 5
- Deaths (1250 mg/kg, D + 2, 8 per lot): 7
- Deaths (1250 mg/kg, D + 5, 8 per lot): 8
- Deaths (1250 mg/kg, D + 10, 8 per lot): 8
